Assay results published in PMC11859726, “HDAC/σ1R Dual-Ligand as a Targeted Melanoma Therapeutic” (Pharmaceuticals, 2025).

What was measured:
UM 92-1 cells [1] = test: Cell proliferation, UM 92-1 cells; format: cell-based, human; conditions: UM 92-1 cells; 3c 30 and 100 nM; pentazocine 2 μM; AC927 2 μM; Figure 3a
Description: (§1) Cells were seeded in 96-well plates at a cell-specific density, following quantification of cell numbers on counting chambers after trypsinization and staining with trypan blue. After seeding (72 h), at a cell confluence of ~50%, the medium was removed, and treatments were started with fresh media. Treatments, carried out in quadruplicate, lasted for 48 h. Then, the cells were fixed with 4% paraformaldehyde in PBS for 20 min and, after washing, stained with either 1% crystal violet in water or an acridine orange solution (50 µg/mL) for an additional 20 min. At the end of the incubations, cells were washed (3 times) with 100 μL/well of bidistilled water. Finally, for crystal violet assays, 100 μL of 10% acetic acid was added to each well, and the absorbance (λ = 590 nm) was measured with a Synergy HTX Bioteck spectrophotometer (BioSPX, Beersel, Belgium). For acridine orange assays, cell staining was evaluated by measuring the fluorescence (excitation 485/20 nm, emission 528/20 nm) with the Synergy HTX Bioteck reader.

σ2R = target: T1, σ2R (Cavia porcellus, UniProt H0V073); test: σ2R radioligand binding assay ([3H]-DTG); parameters: species or system guinea pig; conditions: guinea pig brain membranes; mean ± SD; read-out: Ki σ2R
T1 construct: using guinea pig brain membranes and appropriate radioligands; from tissue; host or cells: guinea pig brain membranes
T1 sequence (H0V073 1-176): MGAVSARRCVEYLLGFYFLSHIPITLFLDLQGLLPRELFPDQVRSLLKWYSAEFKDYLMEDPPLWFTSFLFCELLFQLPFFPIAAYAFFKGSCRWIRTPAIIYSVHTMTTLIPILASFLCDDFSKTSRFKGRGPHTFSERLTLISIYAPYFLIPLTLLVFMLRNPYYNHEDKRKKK
Description: (§3) Radioactivity was determined with a Beckman LS6500 scintillation counter. Inhibition constants (Ki values) were calculated with the EBDA/LIGAND program (Elsevier/Biosoft).

endothelial C166 cells = test: Tube formation assay, VEGF-A-stimulated endothelial cells; format: cell-based, mouse; conditions: 5 µM; 3 h; VEGF-A 80 ng/mL
Description: The tube formation assay using mouse endothelial […] cells was analyzed employing Matrigel (BD, Bedford, MA, USA), as previously described. Briefly, 96-well plates coated with Matrigel (50 μL/well) were filled with 100 μL medium/well and maintained overnight. Endothelial cells were seeded at 2.5 × 10^4 cells/well and incubated (for 3 h) with VEGF-A (80 ng/mL), in the presence of the indicated treatments. Then, capillary-like structures were imaged (×4 magnification) with a CCD camera connected with an inverted EVOS microscope. Finally, ImageJ software (NIH, Bethesda, MD, USA) was employed to quantify tube formations.

A375 cells = test: Cell proliferation, CM A375 cells; format: cell-based, human; conditions: CM A375 cells; 3c 90 and 200 nM; pentazocine 2 μM; AC927 2 μM; Figure 3b
Description: as §1

σ1R = target: T2, σ1R (Cavia porcellus, UniProt Q60492); test: σ1R radioligand binding assay ([3H]-(+)-pentazocine); parameters: species or system guinea pig
T2 construct: using guinea pig brain membranes and appropriate radioligands; from tissue; host or cells: guinea pig brain membranes
Description: as §3

MCF7 cells = test: Tumor cell spreading assay, MCF7 cells; format: cell-based, human; conditions: 100 nM, 1 h
Description: (§2) Adherent 92-1 and MCF-7 cells were harvested using 0.05% Trypsin-EDTA and plated in 6-well plates. After 1 h incubations with the indicated treatments, the number of cells that formed, or not, distinct protrusions (lamellipodia, filopodia) were scored with an inverted microscope (20×, EVOS cell imaging system, Thermo Fisher, Waltham, MA, USA).

UM 92-1 cells [2] = test: Tumor cell spreading assay, 92-1 cells; format: cell-based, human; conditions: 1 h; for cells flat, with protrusions, Exp 1 (%) / cells flat, with protrusions, Exp 2 (%) / cells flat, with protrusions, Exp 3 (%) / rounded cells, Exp 1 (%) / rounded cells, Exp 2 (%) / rounded cells, Exp 3 (%): 92-1, % of total cell population
Description: as §2

[3] = MCF-7, % of total cell population

T2 sequence (Q60492 whole entry): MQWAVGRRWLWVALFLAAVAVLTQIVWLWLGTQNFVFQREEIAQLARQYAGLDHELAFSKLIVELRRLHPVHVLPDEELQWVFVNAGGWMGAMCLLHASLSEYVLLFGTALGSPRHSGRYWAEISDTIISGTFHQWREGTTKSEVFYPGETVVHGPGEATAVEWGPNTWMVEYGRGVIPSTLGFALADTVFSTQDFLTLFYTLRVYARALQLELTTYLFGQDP

COC(=O)/C=C/c1ccc(CN2CCC(O)(c3ccc(Cl)cc3)CC2)cc1 [3c, Metil-(E)-3-(4-{[4-(4-clorofenil)-4-idrossipiperidin-1-il]methyl}phenyl)acrylate]
effect on proliferation (UM 92-1 cells [1]): loss of activity | Ki (σ2R): 1330 ± 286 nM | effect on VEGF-A-stimulated angiogenesis (tube lengths, mesh areas, node numbers; words) (endothelial C166 cells): mimicked the effects of 5c | effect on proliferation (A375 cells): loss of activity | Ki (σ1R): 28 ± 4.4 nM | inhibition of cell spreading (MCF7 cells; MCF7 cells (low σ1R)): unable to significantly inhibit | cells flat, with protrusions, Exp 1 (%) (MCF7 cells; [3]): 49,37% | cells flat, with protrusions, Exp 2 (%) (MCF7 cells; [3]): 50,89% | cells flat, with protrusions, Exp 3 (%) (MCF7 cells; [3]): 46,27% | rounded cells, Exp 1 (%) (MCF7 cells; [3]): 50,63% | rounded cells, Exp 2 (%) (MCF7 cells; [3]): 49,11% | rounded cells, Exp 3 (%) (MCF7 cells; [3]): 53,73% | cells flat, with protrusions, Exp 1 (%) (UM 92-1 cells [2]; 100 nM): 36,01% | cells flat, with protrusions, Exp 2 (%) (UM 92-1 cells [2]; 100 nM): 25,21% | cells flat, with protrusions, Exp 3 (%) (UM 92-1 cells [2]; 100 nM): 33,92% | rounded cells, Exp 1 (%) (UM 92-1 cells [2]; 100 nM): 63,99% | rounded cells, Exp 2 (%) (UM 92-1 cells [2]; 100 nM): 74,79% | rounded cells, Exp 3 (%) (UM 92-1 cells [2]; 100 nM): 66,08% | cells flat, with protrusions, Exp 1 (%) (UM 92-1 cells [2]; 5 µM): 45,38% | cells flat, with protrusions, Exp 2 (%) (UM 92-1 cells [2]; 5 µM): 18,28% | cells flat, with protrusions, Exp 3 (%) (UM 92-1 cells [2]; 5 µM): 39,44% | rounded cells, Exp 1 (%) (UM 92-1 cells [2]; 5 µM): 54,62% | rounded cells, Exp 2 (%) (UM 92-1 cells [2]; 5 µM): 81,72% | rounded cells, Exp 3 (%) (UM 92-1 cells [2]; 5 µM): 60,56% | inhibition of cell spreading (UM 92-1 cells [2]; UM 92-1 cells, from 100 nM): significantly suppressed

c1ccc(CCN2CCCCC2)cc1 [AC927, reference compound]
effect on proliferation (UM 92-1 cells [1]): did not alter | effect on proliferation (A375 cells): did not alter

CC(C)=CCN1CCC2(C)c3cc(O)ccc3CC1C2C (centres unmarked) [PTZ, pentazocine, reference compound]
effect on proliferation (UM 92-1 cells [1]): did not alter | effect on proliferation (A375 cells): did not alter
